Results: patent US4288609A, “Quaternary ammonium derivatives of adamantane with antimicrobic activity” (priority 1976, dated 1981)

Experiments:
Staph.Aureus Tour = assay: M.I.C. in vitro, gram+ Staph. Aureus (Table 1); type: cell-based, Staphylococcus Aureus
Description: (§1) The method for evaluating the activity in vitro against bacteria, fungi and protozoa consists in introducing calculated quantities of the substance, the activity of which it is desired to test, into culture media already inoculated with a predetermined number of test germs.
(§2) After 24 or 48 hours of incubation at 30° or 37° C., according to the micro-organism being tested, it is possible to evaluate the growth of the same in the culture broth; in this manner the minimum concentration (M.I.C.) which inhibits the growth of the micro-organisms in vitro is determined.
(§3) In table 1 there are recorded the M.I.C. values in γ/ml of the products subject of the present invention, against certain gram+ and gram- bacterial strains, some of which are pathogenic towards human beings.

[1] = tested on: Candida Pseudotrop. ATCC 2512; assay: MIC yeasts, Candida pseudotropicalis (Table 2); type: cell-based; settings: Sabourand broth
Description: as §1, §2
(§4) Inoculation with Candida albicans or Candida pseudotropicalis was made by diluting cultures grown for 24 h at 30° C. (cellular density inoculated 10^3 /ml).
(§5) For the fungi Sabourand broth was used as a culture medium, whilst for the protozoa Kupferberg Trichomonas broth with 5% of horse serum was used.

[2] = tested on: Trych. Mentagr. 1st.Pastuer; assay: MIC mildews, Trichophyton mentagrophytes (Table 2); type: cell-based; settings: Sabourand broth
Description: as §1, §2
(§6) Inoculation with Trichophyton mentagrophytes and Microsporum canis was effected in a ratio of 1% of the volume of medium used.
as §5

Pseudom.Aer. ATCC 1014 = assay: M.I.C. in vitro, gram- Pseudom. Aer. (Table 1); type: cell-based, Pseudomonas Aeruginosa
Description: as §1, §2, §3

Trich. Foetus ISM 66/23 = assay: MIC protozoa, Trichomonas foetus (Table 2); type: cell-based; settings: +10% serum (head); Kupferberg Trichomonas broth with 5% of horse serum
Description: as §1, §2
(§7) Inoculation with Trichomonas vaginalis and Trichomonas foetus, obtained from cultures transplanted every other day to make them lively, was effected in a ratio of 3.5% of the volume of medium used.
as §5

Diplococcus Pneum. ISM = assay: M.I.C. in vitro, gram+ Diplococcus Pneum. (Table 1); type: cell-based
Description: as §1, §2, §3

[3] = tested on: Nicrosporum Canis ATCC 11621; assay: MIC mildews, Microsporum canis (Table 2); type: cell-based; settings: Sabourand broth
Description: as §1, §2, §6, §5

[4] = tested on: Trich. Vaginalis ISM 66/22; assay: MIC protozoa, Trichomonas vaginalis (Table 2); type: cell-based; settings: +10% serum (head); Kupferberg Trichomonas broth with 5% of horse serum
Description: as §1, §2, §7, §5

Esch. Coli. SKF 12140 = assay: M.I.C. in vitro, gram- Esch. Coli (Table 1); type: cell-based, Escherichia Coli
Description: as §1, §2, §3

[5] = tested on: Streptococ. Henclyt. 0203; assay: M.I.C. in vitro, gram+ Streptococ. Henclyt. (Table 1); type: cell-based
Description: as §1, §2, §3

mice = assay: Acute oral toxicity in mice (Table 4); settings: oral, mice, 14 days
Description: The substances were administered orally to groups of 10 female mice CF1 of average weight of about 20 grams, in aqueous solution and in such way that the total volume administered would be in each case 1 ml/100 g of weight.

Klens. Pneum. ISM = assay: M.I.C. in vitro, gram- Klens. Pneum. (Table 1); type: cell-based
Description: as §1, §2, §3

Proteus Vulc. ATCC 881 = assay: M.I.C. in vitro, gram- Proteus Vulc. (Table 1); type: cell-based
Description: as §1, §2, §3

Candida Albic. SKF 2270 = assay: MIC yeasts, Candida albicans (Table 2); type: cell-based; settings: Sabourand broth
Description: as §1, §2, §4, §5

| Compound | M.I.C. (Staph.Aureus Tour; +10% serum) | M.I.C. (Staph.Aureus Tour; without serum) | MIC ([1]; +10% serum) | MIC ([1]; without serum) | MIC ([2]; +10% serum) | MIC ([2]; without serum) | M.I.C. (Pseudom.Aer. ATCC 1014; +10% serum) | M.I.C. (Pseudom.Aer. ATCC 1014; without serum) | MIC (Trich. Foetus ISM 66/23) | M.I.C. (Diplococcus Pneum. ISM; +10% serum) | M.I.C. (Diplococcus Pneum. ISM; without serum) | MIC ([3]; +10% serum) | MIC ([3]; without serum) | MIC [4] | M.I.C. (Esch. Coli. SKF 12140; +10% serum) | M.I.C. (Esch. Coli. SKF 12140; without serum) | M.I.C. ([5]; +10% serum) | M.I.C. ([5]; without serum) | M.I.C. (Klens. Pneum. ISM; +10% serum) | M.I.C. (Klens. Pneum. ISM; without serum) | also measured |
| --- | --- | --- | --- | --- | --- | --- | --- | --- | --- | --- | --- | --- | --- | --- | --- | --- | --- | --- | --- | --- | --- |
| CCCCCCCCCC[N+](C)(C)CCOC(=O)C12CC3CC(CC(C3)C1)C2 (single isomer, unassigned) [Example 2, n-Decyl-dimethyl-(1-adamantane-carboxy)-ethyl-ammonium chloride] | 5 µg/mL | 0.2 µg/mL | 50 µg/mL | 0.5 µg/mL | 20 µg/mL | 0.5 µg/mL | 100 µg/mL | 50 µg/mL | 10 µg/mL | 10 µg/mL | 2 µg/mL | 20 µg/mL | 0.5 µg/mL | 20 µg/mL | 100 µg/mL | 10 µg/mL | 1 µg/mL | 0.2 µg/mL | 100 µg/mL | 20 µg/mL | LD50 (mice): 1020 mg/kg; M.I.C. (Proteus Vulc. ATCC 881; +10% serum): 100 µg/mL; M.I.C. (Proteus Vulc. ATCC 881; without serum): 20 µg/mL; MIC (Candida Albic. SKF 2270; +10% serum): 50 µg/mL; MIC (Candida Albic. SKF 2270; without serum): 5 µg/mL |
| CCCCCCCCCC[N+](CC)(CC)CCNC(=O)C12CC3CC(CC(C3)C1)C2 [Example 10, n-Decyl-diethyl-(1-adamantane-carbonylamido)-ethyl-ammonium chloride] | 10 µg/mL | 0.2 µg/mL | 50 µg/mL | 2 µg/mL | 50 µg/mL | 0.5 µg/mL | > 100 µg/mL | 50 µg/mL | 5 µg/mL | 10 µg/mL | 2 µg/mL | 50 µg/mL | 0.5 µg/mL | 10 µg/mL | 100 µg/mL | 10 µg/mL | 5 µg/mL | 0.5 µg/mL | 100 µg/mL | 10 µg/mL | LD50 (mice; 20160 min): 1050 mg/kg; M.I.C. (Proteus Vulc. ATCC 881; +10% serum): 100 µg/mL; M.I.C. (Proteus Vulc. ATCC 881; without serum): 10 µg/mL; MIC (Candida Albic. SKF 2270; +10% serum): 50 µg/mL; MIC (Candida Albic. SKF 2270; without serum): 0.5 µg/mL |
